The record followed here is US20230159511A1, “TETRAHYDROISOQUINOLINE COMPOUNDS AS NRF2 ACTIVATORS” (C4X Discovery Limited, priority 2020, published 2023).

The target in the first test is T1, human KEAP1 (N-term, residues 321-609) (Homo sapiens, UniProt Q14145).
T1 construct: human KEAP1 (N-term, residues 321-609)
T1 sequence (Q14145 321-609): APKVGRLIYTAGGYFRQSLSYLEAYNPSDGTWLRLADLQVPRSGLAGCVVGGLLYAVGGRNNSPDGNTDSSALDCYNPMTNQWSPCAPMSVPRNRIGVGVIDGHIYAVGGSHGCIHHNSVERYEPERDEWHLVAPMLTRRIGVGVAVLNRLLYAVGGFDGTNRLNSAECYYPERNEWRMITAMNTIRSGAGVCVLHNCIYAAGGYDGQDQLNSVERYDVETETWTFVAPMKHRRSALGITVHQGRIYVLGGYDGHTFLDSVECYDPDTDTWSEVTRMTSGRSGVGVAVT
Put plainly: KEAP1 Kelch Fluorescence Polarization (FP) Assay. The format is binding. The settings on record: inhibition of Kelch domain-NRF2 interaction; 2 nM FITC-labelled NRF2 peptide, 25 nM KEAP1, 1 h room temperature; compounds below 10 nM cannot be differentiated. On the procedure: KEAP1 Kelch Fluorescence Polarization (FP) Assay Method
Inhibition of the Kelch domain-NRF2 interaction was determined using a fluorescence polarization-based competition assay in a black 384-well microplate. Compounds were tested at a starting concentration of 10 μM serially diluted 1:3 to generate a 12-point dose response curve on the Biomek FX robot. Each well contained 2 nM FITC-labelled NRF2 peptide (FITC-LDEETGEFL-NH2) and 25 nM human KEAP1 (N-term, residues 321-609) enzyme in a final volume of 20 μL of assay buffer (50 mM Tris-HCl pH 8.0, 100 mM NaCl, 5 mM MgCl2, 0.005% Tween-20, 0.005% BSA, 0.5% DMSO) in the presence of varying concentrations of test compound. Unlabelled peptide (LDEETGEFL-NH2) at 50 μM (negative control) and 0.5% DMSO (positive control) was used to determine the assay window.
After 1 h at room temperature, fluorescence polarization (excitation 470 nm/emission 530 nm) was measured using an Envision plate reader. IC50 values were determined by fitting the data to a four parameter logistic fit using XLfit or XE Runner within ActivityBase. The assay limit is such that compounds below 10 nM cannot be differentiated.
(Polarisation of emitted light reports the rotation of a fluorescent probe.)
In general, IC50 refers to the concentration at which inhibition is half-maximal. A lower IC50 goes with higher potency. `CNC(=O)C1CCCC1C(=O)N1CCc2c(Cl)ccc(OCc3nnn(C)c3C(F)F)c2[C@H]1CN1CCCC1=O` (single isomer, unassigned) [Example 65] registered an IC50 of 18 nM.

Consider `CNC(=O)C1OCCC1C(=O)N1CCc2c(Cl)ccc(OCc3nnn(C)c3C(F)F)c2[C@H]1CN1CCCC1=O` (single isomer, unassigned) [Example 82], for which the half-inhibitory concentration (IC50) was found to be 4070 nM.

Turning to `CNC(=O)[C@@]1(C)CCC[C@H]1C(=O)N1CCc2c(Cl)ccc(OCc3nnn(C)c3C(F)F)c2[C@H]1CN1CCC(C)C1=O` (single isomer, unassigned) [Example 95], half-maximal inhibition (IC50) was put at 23 nM.

`CNC(=O)[C@@]1(C)CCCC[C@H]1C(=O)N1CCc2c(Cl)ccc(OCc3nnn(C)c3C(F)F)c2[C@H]1CN1CCC(C)C1=O` (single isomer, unassigned) [Example 96] gave a half-inhibitory concentration (IC50) of 37 nM.

Compound `CNC(=O)N[C@@H](C)C(=O)N1CCc2cccc(O[C@H]3CCN(C(=O)c4cncs4)C3)c2[C@H]1CN1C(=O)c2ccccc2C1=O` [Example 36, 1-((S)-1-((S)-1-((1,3-dioxoisoindolin-2-yl)methyl)-8-(((S)-1-(thiazole-5-carbonyl)pyrrolidin-3-yl)oxy)-3,4-dihydroisoquinolin-2(1H)-yl)-1-oxopropan-2-yl)-3-methylurea] came in with a half-maximal inhibitory concentration (IC50) of 126 nM. Compared with the last compound, the IC50 is about 3.4-fold higher.

The compound `CNC(=O)[C@H]1CCCC[C@H]1C(=O)N1CCc2c(Cl)ccc(O[C@H]3CCN(C(C)=O)C3)c2[C@H]1CN1C(=O)c2ccccc2C1=O` [Example 37, (1S,2R)-2-((S)-8-(((S)-1-acetylpyrrolidin-3-yl)oxy)-5-chloro-1-((1,3-dioxoisoindolin-2-yl)methyl)-1,2,3,4-tetrahydroisoquinoline-2-carbonyl)-N-methylcyclohexane-1-carboxamide] had a half-maximal inhibitory concentration (IC50) of 44 nM.

As to `CNC(=O)[C@H]1CCCC[C@H]1C(=O)N1CCc2cccc(O[C@H]3CCN(C(=O)c4cncs4)C3)c2[C@H]1CNC(=O)C1CC1` [Example 38, (1S,2R)-2-((S)-1-(cyclopropanecarboxamidomethyl)-8-(((S)-1-(thiazole-5-carbonyl)pyrrolidin-3-yl)oxy)-1,2,3,4-tetrahydroisoquinoline-2-carbonyl)-N-methylcyclohexane-1-carboxamide], 8200 nM corresponded to half-maximal inhibition (IC50). Against the preceding compound, the IC50 is about 190-fold higher.

In the case of `CNC(=O)[C@H]1CCCC[C@H]1C(=O)N1CCc2cccc(OCc3ccn[nH]3)c2[C@H]1CN1C(=O)c2ccccc2C1=O` [Example 39, (1S,2R)-2-((S)-8-((1H-pyrazol-5-yl)methoxy)-1-((1,3-dioxoisoindolin-2-yl)methyl)-1,2,3,4-tetrahydroisoquinoline-2-carbonyl)-N-methylcyclo hexane-1-carboxamide], the IC50 came to 3010 nM.

`CNC(=O)CCCC(=O)N1CCc2cccc(O[C@H]3CCN(C(=O)c4cncs4)C3)c2[C@H]1CN1C(=O)c2ccccc2C1=O` [Example 40, 5-((S)-1-((1,3-dioxoisoindolin-2-yl)methyl)-8-(((S)-1-(thiazole-5-carbonyl)pyrrolidin-3-yl)oxy)-3,4-dihydroisoquinolin-2(1H)-yl)-N-methyl-5-oxopentanamide] came in with an IC50 of 523 nM. Against the preceding compound, the IC50 is about 5.8-fold lower.

`CNC(=O)CCC(=O)N1CCc2cccc(O[C@H]3CCN(C(=O)c4cncs4)C3)c2[C@H]1CN1C(=O)c2ccccc2C1=O` [Example 41, 4-((S)-1-((1,3-dioxoisoindolin-2-yl)methyl)-8-(((S)-1-(thiazole-5-carbonyl)pyrrolidin-3-yl)oxy)-3,4-dihydroisoquinolin-2(1H)-yl)-N-methyl-4-oxobutanamide] showed an IC50 of 788 nM.

Consider `O=C(NCCCO)[C@H]1CCCC[C@H]1C(=O)N1CCc2cccc(O[C@H]3CCN(C(=O)c4cncs4)C3)c2[C@H]1CN1C(=O)c2ccccc2C1=O` [Example 43, (1S,2R)-2-((S)-1-((1,3-dioxoisoindolin-2-yl)methyl)-8-(((S)-1-(thiazole-5-carbonyl)pyrrolidin-3-yl)oxy)-1,2,3,4-tetrahydroisoquinoline-2-carbonyl)-N-(3-hydroxypropyl)cyclohexane-1-carboxamide], for which half-maximal inhibition (IC50) was put at 186 nM.

`CNC(=O)[C@H]1CCCC[C@H]1C(=O)N1CCc2cccc(O[C@H]3CCN(C(=O)c4cncs4)C3)c2[C@H]1CNC(C)=O` [Example 44]: the IC50 is 1170 nM. This IC50 lies about 6.3-fold higher than the previous one.

`CNC(=O)[C@H]1CCCC[C@H]1C(=O)N1CCc2cccc(O[C@H]3CCN(C(=O)c4cncs4)C3)c2[C@H]1CN1CCOC1=O` [Example 45, (1S,2R)-N-methyl-2-((S)-1-((2-oxooxazolidin-3-yl)methyl)-8-(((S)-1-(thiazole-5-carbonyl)pyrrolidin-3-yl)oxy)-1,2,3,4-tetrahydroisoquinoline-2-carbonyl)cyclohexane-1-carboxamide] showed an IC50 of 310 nM.

In turn, `CNC(=O)[C@H]1CCCC[C@H]1C(=O)N1CCc2cccc(OCCCC(=O)O)c2[C@H]1CN1C(=O)c2ccccc2C1=O` [Example 46, 4-(((S)-1-((1,3-dioxoisoindolin-2-yl)methyl)-24(1 R,2S)-2-(methylcarbamoyncyclohexane-1-carbonyl)-1,2,3,4-tetrahydroisoquinolin-8-yl)oxy)butanoic acid] showed an IC50 of 83 nM.

On to `CCC(=O)NC[C@@H]1c2c(cccc2O[C@H]2CCN(C(=O)c3cncs3)C2)CCN1C(=O)[C@@H]1CCCC[C@@H]1C(=O)NC` [Example 47, (1S,2R)-N-methyl-2-((S)-1-(propionamidomethyl)-8-(((S)-1-(thiazole-5-carbonyl)pyrrolidin-3-yl)oxy)-1,2,3,4-tetrahydroisoquinoline-2-carbonyl)cyclohexane-1-carboxamide], for which the IC50 came out at 5330 nM.

For the compound `CNC(=O)[C@H]1CCCCN1C(=O)N1CCc2cccc(O[C@H]3CCN(C(=O)c4cncs4)C3)c2[C@H]1CN1C(=O)c2ccccc2C1=O` [Example 48], the 50% inhibitory concentration (IC50) was 728 nM.

In the case of `CNC(=O)[C@H]1CCCC[C@H]1C(=O)N1CCc2cccc(OCc3cnn(C)c3)c2[C@H]1CN1C(=O)c2ccccc2C1=O` [Example 49, (1S,2R)-2-((S)-1-((1,3-dioxoisoindolin-2-yl)methyl)-8-((1-methyl-1H-pyrazol-4-yl)methoxy)-1,2,3,4-tetrahydroisoquinoline-2-carbonyl)-N-methylcyclohexane-1-carboxamide], half-maximal inhibition (IC50) required 1800 nM.

The compound `CNC(=O)[C@H]1CCCC[C@H]1C(=O)N1CCc2c(Br)ccc(O[C@H]3CCN(C(C)=O)C3)c2[C@H]1CN1C(=O)c2ccccc2C1=O` [Example 50, (1S,2R)-2-((S)-8-(((S)-1-acetylpyrrolidin-3-yl)oxy)-5-bromo-1-((1,3-dioxoisoindolin-2-yl)methyl)-1,2,3,4-tetrahydroisoquinoline-2-carbonyl)-N-methylcyclohexane-1-carboxamide] returned a 50% inhibitory concentration (IC50) of 72 nM.

With `COC(=O)N1CCC[C@H]1C(=O)N1CCc2cccc(O[C@H]3CCN(C(=O)c4cncs4)C3)c2[C@H]1CN1C(=O)c2ccccc2C1=O` [Example 51, methyl (S)-2-((S)-1-((1,3-dioxoisoindolin-2-yl)methyl)-8-(((S)-1-(thiazole-5-carbonyl)pyrrolidin-3-yl)oxy)-1,2,3,4-tetrahydroisoquinoline-2-carbonyl)pyrrolidine-1-carboxylate], the concentration for half-maximal inhibition (IC50) was 1700 nM.

Turning to `CNC(=O)[C@H](C)[C@@H](C)C(=O)N1CCc2c(Cl)ccc(OCc3noc(C(C)C)n3)c2[C@H]1CN1CCCC1=O` [Example 59, (2R,3R)-4-((S)-5-chloro-8-((5-isopropyl-1,2,4-oxadiazol-3-yl)methoxy)-1-((2-oxopyrrolidin-1-yl)methyl)-3,4-dihydroisoquinolin-2(1H)-yl)-N,2,3-trimethyl-4-oxobutanamide], half-maximal inhibition (IC50) was put at 533 nM.

The test system of the next test is NRF2 mediated gene NAD(P)H:quinone acceptor oxidoreductase 1 (NQO1) in BEAS-2B cells. The test can be described thus: Beas2B NQO1 mRNA Cell Based Assay. More on the design: species or system human. The conditions noted are these: Homo sapiens; BEAS-2B cells, compound for 24 h; increase in NQO1 mRNA compared to vehicle (0.1% DMSO) control; read-out: EC50. As for the experimental part:
Beas2B NQO1 mRNA Cell Based Assay
The up regulation of the NRF2 mediated gene NAD(P)H:quinone acceptor oxidoreductase 1 (NQO1) was measured using the following assay method: BEAS-2B cells (ATCC CRL-9609) were plated in 96-well clear plates at 20,000 cells/well in 75 μL of cell culture media and incubated overnight (37° C., 5% CO2). On day 2, 25 μL of compound or controls were added to the cells for 24 h. On day 3, the medium was aspirated from the plate and the Cells-to-CT™ 1-Step TaqMan® Kit (Ambion A25603) was used to perform expression analysis directly from cultured cells without RNA purification according to the manufacturer's instructions.
Briefly, cells were washed with ice cold PBS and 22.5 μL of room-temperature DNase/Lysis solution was added to the cells and incubated at room temperature for 5 minutes. To stop the reaction, 2.25 μL of stop solution was added to the cell lysate. The samples were diluted 1:5 using nuclease free water and 2.5 μL transferred into the PCR plate. Real-time PCR was performed using the C-1000 Thermal Cycler (Bio-Rad) using human beta actin as the internal control. The cDNA was amplified with a specific primer for NQO1 using the 1-step RT-PCR master mix (Ambion Cells-to-CTTM 1-Step TaqMan® Kit A25603). The primers/probes sets that were used for amplification of cDNA were obtained from TaqMan Gene Expression Assays (Applied Biosystems). The comparative CT (ΔΔCT) relative quantification method was used to calculate the relative mRNA level of the target gene NQO1 as described in the Applied Biosystems Chemistry Guide. The data are expressed as an increase in target gene mRNA compared to vehicle (0.1% DMSO) control and the EC50 values were determined by fitting the data to a four parameter logistic fit using XLfit or XE Runner within ActivityBase.
Usually EC50 stands for the concentration giving half of the maximal effect. Take `CNC(=O)C1CCCC1C(=O)N1CCc2c(Cl)ccc(OCc3nnn(C)c3C(F)F)c2[C@H]1CN1CCCC1=O` (single isomer, unassigned) [Example 65]: the concentration for a half-maximal effect (EC50) is 1860 nM.

Turning to `CNC(=O)C1OCCC1C(=O)N1CCc2c(Cl)ccc(OCc3nnn(C)c3C(F)F)c2[C@H]1CN1CCCC1=O` (single isomer, unassigned) [Example 82], the 50% effective concentration (EC50) stood at 1740 nM.

In the case of `CNC(=O)[C@@]1(C)CCC[C@H]1C(=O)N1CCc2c(Cl)ccc(OCc3nnn(C)c3C(F)F)c2[C@H]1CN1CCC(C)C1=O` (single isomer, unassigned) [Example 95], the EC50 came out at 565 nM.

Turning to `CNC(=O)[C@@]1(C)CCCC[C@H]1C(=O)N1CCc2c(Cl)ccc(OCc3nnn(C)c3C(F)F)c2[C@H]1CN1CCC(C)C1=O` (single isomer, unassigned) [Example 96], the EC50 is 3190 nM.
